From article PMC8269059, “Glycyrrhizin Derivatives Suppress Cancer Chemoresistance by Inhibiting Progesterone Receptor Membrane Component 1” (Cancers, 2021) come the findings set out here.

The term Kd denotes the concentration at which binding is half-saturated. High values mean weaker binding, low ones tighter binding.

Each structure is given as a SMILES string. Entries after “also recorded” stand apart in the source; their conditions may differ.

One assay has as its target T1, HMGB1 (Homo sapiens, UniProt P09429).
T1 construct: human HMGB1 full-length cDNA was cloned from cDNA library of HCT116 cells; GST (N, cleaved yes); made in house; host or cells: E. coli BL21 (DE3)
In words: ITC binding to HMGB1. The conditions noted are these: HMGB1 80 µM, compound 3 mM. The text has this:
(§1) Bacterial expression vectors pGEX-PGRMC1 (human PGRMC1 intracellular domain residues 43-195) and mammalian FLAG-tagged expression vector pCMV-FLAG-PGRMC1 (full-length) were constructed as described previously. Expression vectors for PGRMC1 point mutants were generated by site-directed mutagenesis with PCR. For construction of HMGB1 expression vector, human HMGB1 full-length cDNA was cloned from cDNA library of HCT116 cells using the primers (Forward: 5′-[…]-3′, Reverse: 5′-[…]-[…]-3′), digested with Bam HI and Sal I, and then ligated into pGEX6P1.
(§2) Expression vectors (pGEX-PGRMC1 (residues 43-195) or pGEX-HMGB1) were transformed into BL21 (DE3) competent E. coli cells, and the cells incubated in LB medium with ampicillin at 37 °C until the OD600 reached 0.8. Protein expression was induced by adding 1 mM isopropyl-β-thiogalactopyranoside (IPTG) and incubating at 37 °C for 4 h. […]
(§3) ITC experiments were performed at 298 K with ITC-Buffer (50 mM phosphate [pH 7.0]) using a MicroCal iTC200 (Malvern Panalytical, Malvern, UK). […] Binding isotherms were analyzed using SEDPHAT [35]. The binding of AG205 to apo- or heme-PGRMC1 (100 μM) was analyzed using a concentration of 3 mM containing 1% DMSO. […]

The target in another assay is T2, heme-dimerized PGRMC1 (Homo sapiens, UniProt O00264).
T2 construct: human PGRMC1 intracellular domain residues 43-195; GST (N, cleaved yes); made in house; host or cells: E. coli BL21 (DE3)
T2 sequence (O00264 43-195): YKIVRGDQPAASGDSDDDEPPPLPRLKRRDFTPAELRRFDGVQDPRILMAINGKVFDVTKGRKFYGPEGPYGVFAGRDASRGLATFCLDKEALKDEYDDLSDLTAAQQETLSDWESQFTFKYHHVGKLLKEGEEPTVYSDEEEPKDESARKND
The experiment in a line: ITC binding to heme-dimerized PGRMC1. The following applies: for Kd / TΔS / ΔG / ΔH: ITC; for Kd: 298 K, 50 mM phosphate pH 7.0, heme-dimerized PGRMC1 (WT); for TΔS / ΔG / ΔH: heme-dimerized PGRMC1 (WT).

Assay [1] concerns the target T3, interaction between PGRMC1 and LDLR (Homo sapiens, UniProt O00264).
T3 construct: mammalian FLAG-tagged expression vector pCMV-FLAG-PGRMC1 (full-length); expressed in transfected cells; host or cells: HCT116
The experiment in a line: Co-immunoprecipitation of PGRMC1 and LDLR in HCT116 cells. The class given is cell-based. The conditions noted are these: HCT116, FLAG-PGRMC1 co-IP, 12 h treatment. On the procedure:
(§4) An expression vector of pCMV-3xFLAG-PGRMC1 or an empty vector was transfected into HCT116 cells or HuH7 cells using the transfection reagent Lipofectamine 2000 (Invitrogen). The cells were incubated overnight with either GL or GlucoGL. Cells were then lysed with NP40 lysis buffer (20 mM Tris-HCl [pH 7.5], 150 mM NaCl, and 1% NP40). The lysates were incubated with 10 μL of equilibrated anti-FLAG (M2) agarose for 60 min at room temperature. Bound proteins were washed three times and subjected to SDS-PAGE and visualized through western blotting using antibodies against FLAG, EGFR, and LDLR. For analysis of the endogenous PGRMC1-binding with FLAG-PGRMC1, HCT116 cells (1 × 10^7 cells) were treated with vehicle or 250 μM SA and/or 10 μM hemin for 48 h, and the cell lysates were co-immunoprecipitated with anti-FLAG (M2) agarose. Bound proteins (endogenous PGRMC1 and FLAG-tagged PGRMC1) were visualized through western blotting using antibody against PGRMC1.

The target of the next assay is T4, EGFR kinase (Homo sapiens, UniProt P00533).
T4 construct: purchased BPS Bioscience
T4 sequence (P00533 25-1210): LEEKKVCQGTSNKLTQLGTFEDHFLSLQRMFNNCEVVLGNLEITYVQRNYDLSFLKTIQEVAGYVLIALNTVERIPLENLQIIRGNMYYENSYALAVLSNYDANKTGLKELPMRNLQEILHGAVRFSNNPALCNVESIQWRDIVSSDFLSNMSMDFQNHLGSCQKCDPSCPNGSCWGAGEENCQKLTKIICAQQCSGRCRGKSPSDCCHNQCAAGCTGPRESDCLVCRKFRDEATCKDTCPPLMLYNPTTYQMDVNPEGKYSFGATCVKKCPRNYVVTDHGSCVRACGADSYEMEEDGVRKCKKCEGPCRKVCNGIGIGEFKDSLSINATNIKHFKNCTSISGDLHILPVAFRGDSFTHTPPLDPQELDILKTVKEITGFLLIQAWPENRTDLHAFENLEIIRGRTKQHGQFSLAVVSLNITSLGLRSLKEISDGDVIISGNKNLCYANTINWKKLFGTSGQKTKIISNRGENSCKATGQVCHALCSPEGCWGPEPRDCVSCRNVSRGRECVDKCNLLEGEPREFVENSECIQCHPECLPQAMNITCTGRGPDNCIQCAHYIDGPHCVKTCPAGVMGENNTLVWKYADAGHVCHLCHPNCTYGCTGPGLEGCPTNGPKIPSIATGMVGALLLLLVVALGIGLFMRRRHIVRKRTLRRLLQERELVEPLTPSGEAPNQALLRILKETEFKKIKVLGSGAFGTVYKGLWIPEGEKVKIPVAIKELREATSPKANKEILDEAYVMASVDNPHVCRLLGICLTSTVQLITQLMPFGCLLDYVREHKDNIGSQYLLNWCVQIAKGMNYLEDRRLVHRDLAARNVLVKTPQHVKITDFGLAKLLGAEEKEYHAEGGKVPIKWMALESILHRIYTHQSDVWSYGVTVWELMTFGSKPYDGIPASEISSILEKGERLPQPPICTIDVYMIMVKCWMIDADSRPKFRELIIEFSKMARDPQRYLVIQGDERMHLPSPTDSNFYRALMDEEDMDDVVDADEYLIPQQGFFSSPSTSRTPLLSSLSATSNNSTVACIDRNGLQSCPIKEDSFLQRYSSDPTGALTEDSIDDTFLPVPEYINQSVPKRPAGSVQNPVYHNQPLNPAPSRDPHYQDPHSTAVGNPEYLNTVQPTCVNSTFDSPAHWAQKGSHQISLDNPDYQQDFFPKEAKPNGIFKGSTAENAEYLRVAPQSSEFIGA
The experiment in a line: EGFR kinase assay in vitro. The assay is classed as biochemical. The following applies: Kinase-Glo, erlotinib 100nM. In general terms: In Kinase-Glo more light means more ATP remaining.

Assay [2] deals with T5, interaction between PGRMC1 and EGFR (Homo sapiens, UniProt O00264).
T5 construct: mammalian FLAG-tagged expression vector pCMV-FLAG-PGRMC1 (full-length); expressed in transfected cells; host or cells: HCT116 or HuH7
T5 sequence (O00264 whole entry): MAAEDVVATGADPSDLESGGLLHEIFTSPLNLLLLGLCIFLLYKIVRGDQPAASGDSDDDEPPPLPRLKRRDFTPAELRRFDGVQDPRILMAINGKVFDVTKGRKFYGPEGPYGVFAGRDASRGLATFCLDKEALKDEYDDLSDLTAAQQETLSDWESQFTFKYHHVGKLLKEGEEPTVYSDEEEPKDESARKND
In words: Co-immunoprecipitation of PGRMC1 and EGFR in HuH7 cells. The assay is classed as cell-based. The conditions noted are these: HuH7, FLAG-PGRMC1 co-IP, 12 h treatment. On the procedure:
as §4

For a further assay, the target named is T6, PGRMC1 F128W (Homo sapiens, UniProt O00264, F128W).
T6 construct: human PGRMC1 intracellular domain residues 43-195; GST (N, cleaved yes); made in house; host or cells: E. coli BL21 (DE3)
T6 sequence (O00264 43-195 F128W): as the sequence (O00264 43-195) above, with F86W counted along it
In words: ITC binding of GL to PGRMC1 mutant F128W.
From the text: as §1
(§5) ITC experiments were performed at 298 K with ITC-Buffer (50 mM phosphate [pH 7.0]) using a MicroCal iTC200 (Malvern Panalytical, Malvern, UK). GL derivatives were dissolved in […] and titrated into 100 μM apo-PGRMC1, heme-bound-PGRMC1, or HMGB1 protein. Titration was performed by injecting 2 µL of the syringe solution at intervals of 120 s. Binding isotherms were analyzed using SEDPHAT [35]. The binding of AG205 to apo- or heme-PGRMC1 (100 μM) was analyzed using a concentration of 3 mM containing 1% DMSO. The binding affinities of GL derivatives for HMGB1 (80 µM) were analyzed using a concentration of 3 mM.

The target of a further assay is T7, PGRMC1-PGRMC1 binding (Homo sapiens, UniProt O00264).
T7 construct: mammalian FLAG-tagged expression vector pCMV-FLAG-PGRMC1 (full-length); Endogenous PGRMC1 (25 kDa) was co-immunoprecipitated; expressed in transfected cells; host or cells: HCT116
T7 sequence (O00264 whole entry): as the sequence (O00264 whole entry) above
T7 sequence (O00264 whole entry): as above
In words: Co-immunoprecipitation of endogenous PGRMC1 with FLAG-PGRMC1 in HCT116 cells. The following applies: HCT116, co-IP of endogenous PGRMC1 with FLAG-PGRMC1, GL 12 hr. The class given is cell-based. On the procedure: as §4

The next assay addresses T8, PGRMC1 G108W (Homo sapiens, UniProt O00264, G108W).
T8 construct: human PGRMC1 intracellular domain residues 43-195; GST (N, cleaved yes); made in house; host or cells: E. coli BL21 (DE3)
The experiment in a line: ITC binding of GL to PGRMC1 mutant G108W.
From the text: as §1, §5

The next assay has as its target T9, PGRMC1 Q149F (Homo sapiens, UniProt O00264, Q149F).
T9 construct: human PGRMC1 intracellular domain residues 43-195; GST (N, cleaved yes); made in house; host or cells: E. coli BL21 (DE3)
The experiment in a line: ITC binding of GL to PGRMC1 mutant Q149F.
From the text: as §1, §5

The next assay concerns the target T10, PGRMC1 A147W (Homo sapiens, UniProt O00264, A147W).
T10 construct: human PGRMC1 intracellular domain residues 43-195; GST (N, cleaved yes); made in house; host or cells: E. coli BL21 (DE3)
In words: ITC binding of GL to PGRMC1 mutant A147W.
From the text: as §1, §5

The next assay deals with T11, apo-PGRMC1 (Homo sapiens, UniProt O00264).
T11 construct: human PGRMC1 intracellular domain residues 43-195; GST (N, cleaved yes); made in house; host or cells: E. coli BL21 (DE3)
T11 sequence (O00264 43-195): as the sequence (O00264 43-195) above
The experiment in a line: ITC binding to apo-PGRMC1. The following applies: apo-monomer form.
From the text: as §1, §2, §3

T10 sequence (O00264 43-195 A147W): as the sequence (O00264 43-195) above, with A105W counted along it
T8 sequence (O00264 43-195 G108W): as the sequence (O00264 43-195) above, with G66W counted along it
T9 sequence (O00264 43-195 Q149F): as the sequence (O00264 43-195) above, with Q107F counted along it
T3 sequence (O00264 whole entry): as the sequence (O00264 whole entry) above
T1 sequence (P09429 whole entry): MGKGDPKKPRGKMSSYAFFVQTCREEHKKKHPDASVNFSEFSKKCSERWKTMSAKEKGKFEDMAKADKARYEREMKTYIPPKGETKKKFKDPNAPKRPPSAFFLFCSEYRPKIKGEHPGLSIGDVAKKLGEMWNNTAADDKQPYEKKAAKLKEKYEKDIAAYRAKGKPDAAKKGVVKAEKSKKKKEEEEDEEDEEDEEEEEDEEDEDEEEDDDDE
Method for EGFR kinase: The assay was performed using an EGFR kinase assay kit (BPS Bioscience, San Diego, CA, USA). EGFR kinase activity was analyzed by measuring the amount of ATP remaining following the kinase reaction based on luminescent intensity using Kinase-Glo MAX (Promega, Madison, WI, USA). A mixture of kinase buffer, ATP, and PTK substrate was incubated with EGFR (1 ng/µL) with or without GL or GlucoGL at 30 °C for 40 min. Kinase-Glo max was added to each well and incubated at room temperature for 15 min under light protection. Luminescent intensity was measured using a microplate reader.
Method for heme-dimerized PGRMC1: Protein expression was induced by adding 1 mM isopropyl-β-thiogalactopyranoside (IPTG) and incubating at 37 °C for 4 h. After harvesting cells, the cell pellets were then resuspended in buffer containing 20 mM Tris-HCl (pH 7.5), 100 mM NaCl, and 0.1% Tween 20, sonicated twice at 4 °C for 5 min, and centrifuged at 20,000× g for 30 min. The supernatant was incubated with glutathione Sepharose 4B (GE Healthcare, Chicago, IL, USA) for 1 h at 4 °C. The resin was then washed five times with the same buffer, and the GST tag cleaved by adding Precision Protease (GE Healthcare) and incubating at 4 °C for 16 h. Apo-PGRMC1 or HMGB1 proteins was purified using size-exclusion chromatography in a Superdex 200 column (GE Healthcare). Heme-bound PGRMC1 was prepared by treating with 100 μM hemin and then purified using size-exclusion chromatography.
GL derivatives were dissolved in 3 mM ITC-Buffer and titrated into 100 μM apo-PGRMC1, heme-bound-PGRMC1, or HMGB1 protein. Titration was performed by injecting 2 µL of the syringe solution at intervals of 120 s. Binding isotherms were analyzed using SEDPHAT [35]. The binding of AG205 to apo- or heme-PGRMC1 (100 μM) was analyzed using a concentration of 3 mM containing 1% DMSO.

On to `CC1(C(=O)O)CCC2(C)CCC3(C)C(=CC(=O)C4C5(C)CCC(OC6OC(C(=O)O)C(O)C(O)C6OC6OC(CO)C(O)C(O)C6O)C(C)(C)C5CCC43C)C2C1` (stereo not shown) [Glucoglycyrrhizin (GlucoGL), Glucoglycyrrhizin], for which the “KD for HMGB1” value on HMGB1 is “weak binding”. At heme-dimerized PGRMC1, this compound yielded a Kd of 1.38 µM, a TΔS of 7.44 K·kcal/mol, a ΔG of -8.00 kcal/mol and a ΔH of -0.56 kcal/mol. The “Interaction between PGRMC1 and LDLR” value in assay [1] was “inhibited this interaction more potently”. Also, the EGFR kinase activity result on EGFR kinase is “no inhibitory effect”. The “Interaction between PGRMC1 and EGFR” value in assay [2] was “inhibited the interaction”.
Turning to `CC1(C)[C@@H](O[C@H]2O[C@H](C(=O)O)[C@@H](O)[C@H](O)[C@H]2O[C@@H]2O[C@H](C(=O)O)[C@@H](O)[C@H](O)[C@H]2O)CC[C@]2(C)[C@H]3C(=O)C=C4[C@@H]5C[C@@](C)(C(=O)O)CC[C@]5(C)CC[C@@]4(C)[C@]3(C)CC[C@@H]12` [Glycyrrhizin (GL), Glycyrrhizin], the Kd on PGRMC1 F128W came out at 137 µM; at HMGB1 it was 223 µM; on heme-dimerized PGRMC1, 52.7 µM; at PGRMC1 G108W, 185 µM; on PGRMC1 Q149F, 403 µM; on PGRMC1 A147W, 158 µM. The TΔS on PGRMC1 F128W is 0.38 K･kcal/mol; at heme-dimerized PGRMC1, 4.61 K·kcal/mol; on PGRMC1 G108W, 1.58 K･kcal/mol; on PGRMC1 Q149F, −10.62 K･kcal/mol; on PGRMC1 A147W, 2.10 K･kcal/mol. In addition, the ΔG is -5.27 kcal/mol at PGRMC1 F128W, -5.84 kcal/mol at heme-dimerized PGRMC1, -5.09 kcal/mol at PGRMC1 G108W and -5.19 kcal/mol at PGRMC1 A147W. The ΔH was -4.90 kcal/mol at PGRMC1 F128W; -1.23 kcal/mol at heme-dimerized PGRMC1; -3.51 kcal/mol on PGRMC1 G108W; -14.37 kcal/mol on PGRMC1 Q149F; -3.09 kcal/mol at PGRMC1 A147W. At heme-dimerized PGRMC1 (ratio of KD HMGB1 / PGRMC1), the “Binding to heme-dimerized PGRMC1 relative to binding to HMGB1” value came out at 4.23 times. Further, on PGRMC1-PGRMC1 binding, the PGRMC1-PGRMC1 binding entry is on record as “did not affect”. Further, the “Interaction between PGRMC1 and LDLR” value in assay [1] is given as “inhibited”. Besides, the EGFR kinase activity entry on EGFR kinase is reported as “no inhibitory effect”. The “Interaction between PGRMC1 and EGFR” value in [2] was “inhibited the interaction”. Also, at apo-PGRMC1, the “Binding to apo-PGRMC1” value is “No Binding; also recorded: not to the apo-monomer form”.
